Assay results reported in PubChem BioAssay AID179 (DTP/NCI, 2004).
Active and inactive are the calls of the source.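 How the source made its calls: active means compounds giving half or more protection of infected cells from virus-caused growth loss, again on retest; inactive means the rest.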

Tested on: CEM cells HIV-1 protection, formazan growth assay
Experiment: NCI AIDS Antiviral Assay
Settings: for IC50: measured here: growth of uninfected CEM cells
Method in brief: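 CEM (human) cells, HIV-1 infected vs uninfected, 5-point dosing, formazan growth read-out. Retest threshold 50% protection.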

## N#Cc1c(N2CCCC2)nsc1Nc1ccc(F)cc1
  EC50: > 200 µM
  IC50: > 200 µM

## COc1ccc(C(N)=O)cc1N=NN(C)C
  EC50: > 1120 µM
  IC50: 501 µM

## CC(C)=CCC[C@@H](C)c1c(O)c(O)c(C)c2nc3ccccc3nc12
  EC50: > 200 µM
  IC50: 5.89 µM

## N#CCC(C#N)N1CCOCC1 (stereo not drawn)
  EC50: > 200 µM
  IC50: > 200 µM

## CC(=S)N/C=C(/c1ccc(Cl)cc1Cl)S(=O)(=O)Cc1ccc(Cl)cc1Cl
  EC50: > 100 µM
  IC50: > 100 µM

## CCOC(=O)C(c1ccsc1)C(C(=O)OCC)c1cccs1 (stereo not drawn)
  EC50: > 200 µM
  IC50: > 200 µM

## O=C1C(NS(=O)(=O)c2ccccc2)=C(n2cnc3ccccc32)C(=O)c2ccccc21
  EC50: > 200 µM
  IC50: 145 µM

## CN(C)CCNC(=O)c1nc([N+](=O)[O-])cn1C
  EC50: > 200 µM
  IC50: > 200 µM

## COc1ccc(C(OCC2OC3(COC(c4ccccc4)(c4ccc(OC)cc4)c4ccc(OC)cc4)C(Oc4nc(=O)ccn43)C2O)(c2ccccc2)c2ccc(OC)cc2)cc1 (stereo not drawn)
  EC50: > 100 µM
  IC50: > 100 µM

## CCOC(=O)[C@@]12C(=O)[C@@H](C)CC[C@@H]1[C@@H](C)C[C@H]2C=C(C)C
  EC50: > 200 µM
  IC50: 110 µM

## Nc1cc(Cl)ccc1S
  EC50: > 200 µM
  IC50: 13.8 µM

## COC(=O)N/N=C(\Cc1ccccc1)CN(C)C
  EC50: > 200 µM
  IC50: > 200 µM

## O=C1/C(=C/c2ccc([N+](=O)[O-])cc2)Cc2ccccc21
  EC50: > 2.04 µM
  IC50: > 2.04 µM

## Cc1ccc(S(=O)(=O)c2c3[nH]c4ccccc4nc3n3c2nc2ccccc23)cc1
  EC50: > 120 µM
  IC50: > 120 µM

## COC(=O)C([C@H]1CC[C@H](OCc2ccccc2)[C@@]1(O)COCc1ccccc1)C(C)(O)CCc1ccccc1 (stereo partly drawn)
  outcome: inactive

## COc1ccc(C(OCC2OC(n3ccc(Oc4c(F)c(F)c(F)c(F)c4F)nc3=O)CC2OP(OCCC#N)N(C(C)C)C(C)C)(c2ccccc2)c2ccc(OC)cc2)cc1 (stereo not drawn)
  EC50: > 200 µM
  IC50: 89.1 µM

## c1cn(C23C4C5C6C4C2C6C53)cn1 (stereo not drawn)
  EC50: > 200 µM
  IC50: > 200 µM

## COC(=O)/C=C(/C(=O)OC)C1(C)c2cc(C(=O)OC)c(C(=O)OC)c(N)c2C(=N)N1c1ccccc1 (stereo not drawn)
  outcome: inactive

## CCN(CC)CCNc1ccc2ncn3c4c(OC)ccc(OC)c4c(=O)c1c23
  EC50: > 50.1 µM
  IC50: 1.23 µM

## O=C(CCC/C(CC(=O)c1ccc(Cl)cc1)=N\NC(=O)c1cc2ccccc2cc1O)Nc1cccc([N+](=O)[O-])c1
  outcome: inactive

## O=C(O)C12C3CCC(CC3)C1(C(=O)O)C1CCC2C1 (stereo not drawn)
  EC50: > 200 µM
  IC50: > 200 µM

## COc1cc(C)c2c(c1C=O)Oc1c(c(C)c(O)c3c1C(O)OC3=O)OC2=O (stereo not drawn)
  EC50: > 93.3 µM
  IC50: 53.7 µM

## O=c1[nH]nc(Cc2ccc([N+](=O)[O-])cc2)n1CCO
  EC50: > 200 µM
  IC50: > 200 µM

## N#C/C(=C\c1c(Cl)cccc1Cl)c1nc(-c2ccc(Cl)cc2)cs1
  EC50: > 200 µM
  IC50: 72.4 µM

## CCCCC(=O)c1c(O)c2ccccc2oc1=O
  EC50: > 200 µM
  IC50: 29.5 µM

## CC(C)(C)N=P(c1ccccc1)(c1ccccc1)c1ccccc1
  EC50: > 200 µM
  IC50: 191 µM

## CCCCCCCCCCCCOC(=S)NCCCC
  outcome: inactive

## CC(=O)OC1CC(OC(C)=O)[C@@]2(C)C[C@@H]3C(C)C(=O)O[C@H]3CC(C)C12 (stereo partly drawn)
  EC50: > 74.1 µM
  IC50: 42.7 µM

## N#C/C(=C\n1ccc(=O)[nH]c1=S)c1nc2ccccc2s1
  EC50: > 200 µM
  IC50: > 200 µM

## O=C1CC(c2ccsc2)n2cccc21 (stereo not drawn)
  EC50: 186 µM
  IC50: > 200 µM

## COc1ccc2c3c1C(=O)CCC3CO2 (stereo not drawn)
  outcome: inactive

## C[n+]1c2ccccc2c(/C=N\NS(=O)(=O)c2ccc(O)c(C(=O)O)c2)c2ccccc21
  outcome: inactive

## O=C1c2ccccc2C(=O)c2c(O)c(NCCCNCCO)cc(O)c21
  outcome: inactive

## Cc1cccc(N=C2NC(=O)C(CC(=O)Nc3ccc(C)cc3C)S2)c1 (stereo not drawn)
  EC50: > 26.9 µM
  IC50: > 26.9 µM

## C=CCc1ccccc1N(C(=O)c1ccccc1)C(C(=O)OCC)c1ccccc1 (stereo not drawn)
  EC50: > 13.2 µM
  IC50: > 13.2 µM
